Measurements published in BindingDB's records for doi:10.7270/Q2ZC817P (The Scripps Research Institute Molecular Screening Center, 2007).

biological target: Sphingosine 1-phosphate receptor 1 (Homo sapiens, UniProt P21453); assay: S1P1 agonism potentiation – cell-based, potentiator mode, 60K MLSMR set, dose response (AID 466); conditions: not given
Sequence (P21453 whole entry): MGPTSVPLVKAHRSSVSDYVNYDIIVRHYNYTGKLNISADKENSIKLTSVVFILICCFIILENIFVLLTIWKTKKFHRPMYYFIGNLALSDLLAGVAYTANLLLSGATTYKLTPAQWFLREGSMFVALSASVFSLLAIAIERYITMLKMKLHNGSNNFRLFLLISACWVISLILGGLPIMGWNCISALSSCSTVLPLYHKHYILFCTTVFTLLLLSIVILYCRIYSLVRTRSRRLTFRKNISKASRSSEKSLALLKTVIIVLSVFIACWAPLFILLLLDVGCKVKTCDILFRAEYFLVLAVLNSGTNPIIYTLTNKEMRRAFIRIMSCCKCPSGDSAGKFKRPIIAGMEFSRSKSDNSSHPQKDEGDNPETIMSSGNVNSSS

Row | SMILES | EC50
1 | CCOC(=O)C1CCN(c2ncnc3c2oc2ccc(Cl)cc23)CC1 [1-(8-chloro-4-benzofuro[3,2-d]pyrimidinyl)-4-piperidinecarboxylic acid ethyl ester] | > 95 µM
2 | CCOc1ccc(-c2nnc(-c3cccs3)o2)cc1OCC [2-(3,4-Diethoxy-phenyl)-5-thiophen-2-yl-[1,3,4]oxadiazole] | 5.58 µM
3 | Cc1nnc(SC(=O)N2c3ccccc3Sc3ccccc32)s1 [10-phenothiazinecarbothioic acid S-(5-methyl-1,3,4-thiadiazol-2-yl) ester] | 3.63 µM
4 | O=C(Nc1ccc(OC(F)F)c(Cl)c1)Nc1ccc2c(c1)OCO2 [1-(1,3-benzodioxol-5-yl)-3-[3-chloro-4-(difluoromethoxy)phenyl]urea] | 8.5 µM
5 | Cc1ccc2[nH]c3c(N4CCN(Cc5ccc6c(c5)OCO6)CC4)ncnc3c2c1 | > 30 µM
6 | CC(C)OC(=O)CSc1nc(N)c(C#N)c(-c2cccs2)c1C#N [2-[(6-amino-3,5-dicyano-4-thiophen-2-yl-2-pyridinyl)thio]acetic acid propan-2-yl ester] | > 30 µM
7 | Oc1ccc(-c2nnc(SCC3CCCCC3)o2)cc1 [4-(5-Cyclohexylmethylsulfanyl-[1,3,4]oxadiazol-2-yl)-phenol] | 0.437 µM
8 | c1ccc(N2CCN(c3ncnc4c3oc3ccccc34)CC2)cc1 [4-(4-phenyl-1-piperazinyl)benzofuro[3,2-d]pyrimidine] | > 95 µM
9 | CC(=O)Oc1ccc(-n2c(O)c3c(c2O)C2(C)C=CC3(C)O2)cc1 [MLS000107813] | 13.4 µM
10 | Cc1cc(N2CCN(c3nc4ccccc4s3)CC2)n2ncnc2n1 [2-[4-(5-methyl-[1,2,4]triazolo[1,5-a]pyrimidin-7-yl)-1-piperazinyl]-1,3-benzothiazole] | 6.29 µM
11 | c1ccc(CSc2nnc(-c3c[nH]c4ccccc34)o2)cc1 | 1.59 µM
12 | O=C(Nc1ccc(N2CCCC2)c(Cl)c1)c1ccc(Br)o1 [5-bromanyl-N-(3-chloranyl-4-pyrrolidin-1-yl-phenyl)furan-2-carboxamide] | 3.76 µM
13 | Cc1ccc(-c2csc(N3CCC(NS(=O)(=O)c4ccc5c(c4)OCCO5)CC3)n2)cc1 [N-[1-[4-(4-methylphenyl)-1,3-thiazol-2-yl]piperidin-4-yl]-2,3-dihydro-1,4-benzodioxine-6-sulfonamide] | 1.4 µM
14 | CCOc1ccc(-c2nc(-c3ccccc3C)no2)cc1 [3-(o-tolyl)-5-p-phenetyl-1,2,4-oxadiazole] | 1.52 µM
15 | CCOc1ccc(-c2nnc(-c3ccco3)o2)cc1OCC [2-(3,4-Diethoxy-phenyl)-5-furan-2-yl-[1,3,4]oxadiazole] | 1.04 µM
16 | Cc1cc2nc(-c3ccc(NC(=O)C(C)C)cc3)oc2cc1C [MLS000109473] | 2.77 µM
17 | Cc1csc(NC(=O)c2nc(-c3ccccc3)n(-c3ccccc3)n2)n1 [MLS000058347] | 9.69 µM
18 | COC(=O)CS(=O)(=O)c1nnc([C@H](Cc2ccccc2)NC(=O)OC(C)(C)C)o1 [SMR000046685] | 8.44 µM
19 | COc1cc(C(=O)N2CCN(S(=O)(=O)c3ccc(C)cc3)CC2)ccc1OCc1c(C)noc1C [MLS000056221] | > 95 µM
20 | CCCCOc1ncnc2c1[nH]c1ccccc12 [MLS000041483] | 4.52 µM
21 | O=C(NCc1ccco1)C1CCN(C(=O)c2cc3sccc3n2Cc2ccc(Cl)cc2)CC1 [1-[4-(4-chlorobenzyl)thieno[3,2-b]pyrrole-5-carbonyl]-N-(2-furfuryl)isonipecotamide] | 9.88 µM

Row | SMILES | EC50
22 | COc1ccc(NC(=O)c2cc(-c3cccs3)on2)cc1OC [MLS000087261] | 5.28 µM
23 | CC1(C)CC(=O)C(=CNc2ccc3[nH]ncc3c2)C(=O)C1 [SMR000111453] | 6.01 µM
24 | CC(C)C(c1nnnn1Cc1ccccc1)N(Cc1ccco1)Cc1cccs1 (centres undefined) [1-(1-benzyltetrazol-5-yl)-N-(furan-2-ylmethyl)-2-methyl-N-(thiophen-2-ylmethyl)propan-1-amine] | > 95 µM
25 | Clc1ccc(OCCN2CCN(c3ncnc4sccc34)CC2)cc1 [4-[4-[2-(4-chloranylphenoxy)ethyl]piperazin-1-yl]thieno[2,3-d]pyrimidine] | 0.108 µM
26 | CCN(C(=O)C1CCCCC1)c1nnc(-c2cccnc2)s1 [Cyclohexanecarboxylic acid ethyl-(5-pyridin-3-yl-[1,3,4]thiadiazol-2-yl)-amide] | 1.75 µM
27 | O=C(Nc1ccc(-c2noc(CCc3ccccc3)n2)cc1)c1cccnc1 [MLS000047253] | 3.4 µM
28 | CC(=O)Nc1cc(OC(C)=O)c2nonc2c1OC(C)=O [Acetic acid 7-acetoxy-5-acetylamino-benzo[1,2,5]oxadiazol-4-yl ester] | 5.71 µM
29 | CC(=O)c1c(C)[nH]c(C(=O)OCCCCN2C(=O)c3ccccc3C2=O)c1C [4-acetyl-3,5-dimethyl-1H-pyrrole-2-carboxylic acid 4-(1,3-dioxo-2-isoindolyl)butyl ester] | 2.1 µM
30 | O=C(NCc1ccc2c(c1)OCO2)C1CC(=O)N(C2CCCCCCC2)C1 (centres undefined) [1-cyclooctyl-5-keto-N-piperonyl-pyrrolidine-3-carboxamide] | > 95 µM
31 | CCN(CC)c1ccc2cc(NC(=O)CCC(=O)O)c(=O)oc2c1 [4-[[7-(diethylamino)-2-keto-chromen-3-yl]amino]-4-keto-butyric acid] | 8.31 µM
32 | Clc1ccc(OCc2nnc(-c3ccccc3Br)o2)c(Cl)c1 [2-(2-bromophenyl)-5-[(2,4-dichlorophenoxy)methyl]-1,3,4-oxadiazole] | > 95 µM
33 | CCC(C)c1ccc2oc(-c3ccc(NC(=O)Cn4cnc5c(=O)n(C)c(=O)n(C)c54)cc3)nc2c1 (centres undefined) [2-(2,6-diketo-1,3-dimethyl-purin-9-yl)-N-[4-(5-sec-butyl-1,3-benzoxazol-2-yl)phenyl]acetamide] | 1.59 µM
34 | CCCCc1ccc(C2C(C#N)C(=N)SC(=N)C2C#N)s1 (centres undefined) [2,6-bis(azanyl)-4-(5-butylthiophen-2-yl)-4H-thiopyran-3,5-dicarbonitrile] | 13.7 µM
35 | COc1ccc(CNC(=O)c2cc3c(C)nc4ccccc4c3o2)c(OC)c1 [MLS000118441] | 5.06 µM
36 | c1csc(CCNc2ncnc3sc4c(c23)CCC4)c1 [7,8-dihydro-6H-cyclopenta[4,5]thieno[1,2-c]pyrimidin-1-yl-[2-(2-thienyl)ethyl]amine] | 1.44 µM
37 | CC1=NC(=O)NC(c2ccc(Cl)cc2)C1C(=O)OCc1ccc2c(c1)OCO2 (centres undefined) [1,3-benzodioxol-5-ylmethyl 4-(4-chlorophenyl)-6-methyl-2-oxidanylidene-3,4-dihydro-1H-pyrimidine-5-carboxylate] | > 0.3 µM
38 | Fc1ccccc1COc1ccc(C=Nn2cnnc2)cc1 [1-[4-[(2-fluorophenyl)methoxy]phenyl]-N-(1,2,4-triazol-4-yl)methanimine] | 4.74 µM
39 | COc1ccccc1-c1nc(-c2cccc(C)c2)no1 [5-(2-methoxyphenyl)-3-(3-methylphenyl)-1,2,4-oxadiazole] | 0.999 µM
40 | CC(C)c1ccc2oc(-c3ccc(N)cc3)nc2c1 [4-(5-propan-2-yl-1,3-benzoxazol-2-yl)aniline] | 2.14 µM
41 | COC(=O)c1ccc(C(c2c(N)n(CC(C)C)c(=O)[nH]c2=O)N2CCN(c3ccccc3)CC2)cc1 (centres undefined) [4-[[6-amino-1-(2-methylpropyl)-2,4-dioxo-5-pyrimidinyl]-(4-phenyl-1-piperazinyl)methyl]benzoic acid methyl ester] | > 95 µM
42 | CCCCNc1cc(C)nc(NCc2ccccc2)n1 [2-N-benzyl-4-N-butyl-6-methylpyrimidine-2,4-diamine] | 5.39 µM

same assay, conditions: inactive by the depositor's call

Row | SMILES | EC50
43 | Cc1cc(C(=O)CN2C(=O)c3ccccc3C2=O)c(C)n1Cc1cccs1 [2-[2-[2,5-dimethyl-1-(2-thenyl)pyrrol-3-yl]-2-keto-ethyl]isoindoline-1,3-quinone] | 21.4 µM
44 | Cc1cccc(-c2nc(CSCC(=O)N3CCN(c4ccccn4)CC3)c(C)o2)c1 [1-[({[5-methyl-2-(3-methylphenyl)-1,3-oxazol-4-yl]methyl}thio)acetyl]-4-pyridin-2-ylpiperazine] | 12.2 µM
45 | CC1CCN(S(=O)(=O)c2ccc3c(c2)oc(=O)n3CC(=O)NCc2ccc3c(c2)OCO3)CC1 [2-[2-keto-6-(4-methylpiperidino)sulfonyl-1,3-benzoxazol-3-yl]-N-piperonyl-acetamide] | 14.6 µM
46 | CCOc1ccccc1COC(=O)c1cccc(-n2cnnn2)c1 [(2-ethoxyphenyl)methyl 3-(1,2,3,4-tetrazol-1-yl)benzoate] | 25.8 µM
47 | COc1cccc(-c2csc(N3CCN(CC(=O)Nc4ccc5c(c4)OCO5)CC3)n2)c1 [MLS000070935] | 17.9 µM
48 | CCc1ccc(N(CC)c2ncnc3nc[nH]c23)cc1 | 14.7 µM
49 | COc1ccc2ncn(-c3ccccc3)c2c1 [6-methoxy-1-phenyl-1H-1,3-benzodiazole] | 23.6 µM
50 | O=C(C1CC1)N1CCc2cc(S(=O)(=O)NCC3COc4ccccc4O3)ccc21 (centres undefined) [1-(cyclopropanecarbonyl)-N-(2,3-dihydro-1,4-benzodioxin-3-ylmethyl)-2,3-dihydroindole-5-sulfonamide] | 13.8 µM
51 | CC(C)(C)NC(=O)CSc1ncnc2c1nnn2Cc1ccccc1Cl [MLS000034488] | 12.7 µM
52 | CC(=O)Nc1ccc(S(=O)(=O)N2CCN(c3cccc(C)c3C)CC2)cc1 [MLS000115810] | 16.7 µM
53 | O=C(Nc1nc(-c2ccc3c(c2)OCO3)cs1)c1ccncc1 [MLS000073104] | 12 µM
54 | CC1=CC(C)(C)Nc2ccc(OC(=O)c3cccnc3)cc21 [(2,2,4-trimethyl-1H-quinolin-6-yl) pyridine-3-carboxylate] | 11 µM
55 | c1ccc(N2CCN(Cc3ccnc4ccccc34)CC2)cc1 [4-[(4-phenyl-1-piperazinyl)methyl]quinoline] | 10.6 µM
56 | COc1ccc2c(c1)CCc1c(C(=O)NC3CCCCC3)noc1-2 [MLS000087437] | 88.9 µM
57 | CCOC(=O)N1CCC(NC(=O)C2CCCN(Cc3nc(-c4cccc(Cl)c4)oc3C)C2)CC1 (centres undefined) [4-[[1-[[2-(3-chlorophenyl)-5-methyl-oxazol-4-yl]methyl]nipecotoyl]amino]piperidine-1-carboxylic acid ethyl ester] | 20.1 µM
58 | CCCC(=O)c1ccc(N2CCN(C(=O)c3ccccc3Br)CC2)c(F)c1 [1-[4-[4-(2-bromobenzoyl)piperazin-1-yl]-3-fluorophenyl]butan-1-one] | 12.1 µM
59 | O=C(CSCC(=O)N1CCCCC1)Nc1nc(-c2cccs2)cs1 [2-(2-oxidanylidene-2-piperidin-1-yl-ethyl)sulfanyl-N-(4-thiophen-2-yl-1,3-thiazol-2-yl)ethanamide] | 45.2 µM
